Here are results for one molecule from patent US11040976B2, “Substrate selective inhibitors of insulin-degrading enzyme (IDE) and uses thereof” (President and Fellows of Harvard College, priority 2015, dated 2021).

The experiment concerns the target T1, human IDE Ala479Leu (Homo sapiens, UniProt P14735, A479L).
T1 construct: N-His6-tagged human IDE42-1019 construct was introduced in the expression plasmid pTrcHis-A; His6 (N); made in house; host or cells: E. coli Rosetta 2 (DE3) pLysS
T1 sequence (P14735 42-1019 A479L): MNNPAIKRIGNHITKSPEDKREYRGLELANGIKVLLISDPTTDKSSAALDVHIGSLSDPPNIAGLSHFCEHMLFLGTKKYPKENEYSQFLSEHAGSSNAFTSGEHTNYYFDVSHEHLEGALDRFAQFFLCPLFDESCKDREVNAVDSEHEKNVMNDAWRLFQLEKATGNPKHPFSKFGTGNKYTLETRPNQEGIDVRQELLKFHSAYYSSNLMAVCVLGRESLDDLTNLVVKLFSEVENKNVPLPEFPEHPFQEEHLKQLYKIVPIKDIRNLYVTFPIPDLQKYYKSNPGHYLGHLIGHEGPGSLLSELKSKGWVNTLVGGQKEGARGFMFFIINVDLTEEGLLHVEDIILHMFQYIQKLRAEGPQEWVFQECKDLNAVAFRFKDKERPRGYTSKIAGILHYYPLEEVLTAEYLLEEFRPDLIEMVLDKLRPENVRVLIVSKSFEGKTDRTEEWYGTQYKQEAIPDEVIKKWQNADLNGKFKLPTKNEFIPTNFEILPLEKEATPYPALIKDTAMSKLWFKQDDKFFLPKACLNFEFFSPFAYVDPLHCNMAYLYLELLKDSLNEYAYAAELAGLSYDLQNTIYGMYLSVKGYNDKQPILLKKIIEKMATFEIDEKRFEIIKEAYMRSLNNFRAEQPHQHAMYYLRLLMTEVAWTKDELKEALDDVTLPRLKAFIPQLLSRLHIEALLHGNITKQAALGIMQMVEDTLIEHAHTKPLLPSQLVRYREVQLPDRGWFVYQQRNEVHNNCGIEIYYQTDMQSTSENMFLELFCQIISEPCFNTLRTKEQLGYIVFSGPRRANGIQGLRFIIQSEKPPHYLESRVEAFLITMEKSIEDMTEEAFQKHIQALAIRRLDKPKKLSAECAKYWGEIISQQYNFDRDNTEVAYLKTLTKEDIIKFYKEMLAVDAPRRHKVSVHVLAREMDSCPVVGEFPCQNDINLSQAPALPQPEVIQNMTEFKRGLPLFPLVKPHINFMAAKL
In words: Activity assay of mutant human IDE variant A479L with IDE inhibitors. The class given is biochemical. An excerpt: N-His6-tagged human IDE42-1019 construct was introduced in the expression plasmid pTrcHis-A (Invitrogen) using primers for uracil-specific excision reactions (USER) by Taq (NEB) and Pfu polymerases (PfuTurbo CX®, Agilent), as described in more detail in Maianti et al. (Nature (2014), 511, 94-98), which is incorporated by reference herein. The IDE gene was amplified with the primers 5′-[…]-dU-[…] (SEQ ID NO: 26) and 5′-[…] G-dU-[…] (SEQ ID NO: 27) (underlined sequences represent overhangs, and italics highlight the PCR priming sequence). Similarly, the pTrcHis-A vector was amplified for USER cloning with the primers 5′-[…]-dU-[…] (SEQ ID NO: 28) and 5′-[…]-dU-[…] (SEQ ID NO: 29). Mutant IDE constructs were generated by amplifying the full vector construct with USER cloning primers introducing a mutant overhang (see Table E6).
Recombinant His6-tagged proteins were purified by Ni(II)-affinity chromatography (IMAC sepharose beads, GE Healthcare®) according to the manufacturer's instructions. The cell pellets were re-suspended in pH 8.0 buffer containing 50 mM phosphate, 300 mM NaCl, 10 mM imidazole, 1% Triton X-100 and 1 mM tris(2-carboxyethyl)phosphine hydrochloride (TCEP), and were lysed by probe sonication for 4 minutes at <4° C., followed by clearing of cell debris by centrifugation at 10,000 g for 25 minutes at 4° C. […]

As to `NCCCC[C@@H]1NC(=O)/C=C/C(=O)N[C@H](C(N)=O)CCCCNC(=O)[C@@H](Cc2ccc(C(=O)c3ccccc3)cc2)NC(=O)[C@H](CC2CCCCC2)NC1=O` [6bK, reference compound], the “effect of Ala479Leu mutation on inhibition of IDE” value is recorded as “blocks 6bK from inhibiting IDE”.
